Reference: patent US7259146B2, “Neuroprotective peptides” (Ortho-McNeil Pharmaceutical, Inc., priority 2000, dated 2007)
Entries after “also recorded” stand apart in the source; their conditions may differ.

Columns and labels:
[1] = test system: spontaneous hypertensive rats rendered ischemic; assay: Experimental model of cerebral ischemia (tandem CCA/MCA occlusion), infarct volume; assay type: in vivo, rat
Experimental: Male spontaneous hypertensive rats (Charles River) weighing between 250–300 g were weighed and then anesthetized with ketamine (100 mg/ml)/xylazine (20 mg/ml) cocktail (1.2 ml/kg; i.p.). The level of anesthetic was assessed by corneal reflex (air puff to eye) and leg jerk in response to tail or foot pinch. Once the rat was anesthetized, it was placed on a small animal surgical board and restrained during the surgical procedure. The rat's body temperature was monitored continuously with a rectal probe and maintained at 37° C. with a homeostatic heating pad.
Rats were rendered ischemic by tandem occlusion of the left common carotid artery and the left middle cerebral artery for 2 h followed by 22 h of reperfusion using a modification of the technique described by Brint and co-workers (J. Cereb Blood Flow Metab 8:474–485, 1988). Specifically, the left CCA was isolated through an incision in the ventral surface of the neck. For isolation of the ipsilateral MCA, a second incision was made between the lateral canthus of the left eye and the corresponding external auditory canal to bare the underlying skull. […]
Twenty-hours prior to the onset of ischemia, an osmotic mini-pump (Model 1003D; Alza) filled with vehicle or EPO was placed between the scapula of the rat. […] Twenty-two hours later, the rats were evaluated for behavioral performance, a blood sample was collected for terminal plasma levels of EPO and then the rat was euthanized, brain removed, sectioned and stained for histological analysis.
(§1) On Day One, the rats were rendered ischemic as described above. […] Twenty-two hours later, the rats were evaluated for behavioral performance, a blood sample was collected for terminal plasma levels of EPO and then the rat was euthanized, brain removed, sectioned and stained for histological analysis.
as §1, with “analysis. […]” for “analysis.”

[2] = test system: rat cerebral cortical neurons; assay: Glutamate toxicity assay in primary cortical cultures; assay type: cell-based
Text: Dissociated hippocampal and cortical cell cultures were established from embryonic day 18 rat fetuses as previously described (Mattson et al., 1994). Briefly, fetuses were removed via cesarean section from pregnant moms (Sprague-Dawley) anesthetized with halothane according to the AVMA Panel on Euthanasia. Pups were decapitated and the brains were removed and placed in HEPES-buffered Hank's Balanced Salt solution (HBSS; Gibco). The hippocampi and cortices were dissected out and pooled according to tissue-type. Tissue was trypsinized for 15 min (1 mg/ml trypsin-HBSS; Worthington), rinsed with fresh HBSS, incubated in trypsin inhibitor (1 mg/ml; Sigma) for 5 min, rinsed again with fresh HBSS and then triturated in 1 ml fresh HBSS with a fire-polished glass pipette. Dissociated cells were seeded at 30,000 cells/well onto poly-D-lysine coated 96-well plates (Collaborative BioScience). Each well contained 100 μl of Eagle's Minimal Essential Media (MEM; Gibco) supplemented with 26 mM NaHCO3 (Sigma), 56 mM glucose (Sigma), 15 mM KCl (Sigma), 1 mM sodium pyruvate (Sigma), 1.1 mM L-glutamine (Sigma), 10% (v/v) heat-inactivated fetal bovine serum (Hyclone), and 0.001% gentamicin sulfate (Sigma) (pH 7.4). Cells were allowed to attach for 24 h in a humidified 37° C. 5% CO2 incubator before experimental treatment. The culture media was aspirated and exchanged with fresh media every three days.
Cortical cells were seeded at 200,000 cells/dish onto polyethylenimine-coated 35 mm culture dishes. Each dish contained 1.5 ml MEM supplemented as described above. On the seventh day in culture, four fields per pre-marked dish were visualized with a Nikon Diaphot inverted microscope (10×magnification) and photographed prior to experimental treatment. […] Cell survival was measured by counting viable cells in each field pre- and post-experimental treatment. […] Data were expressed as percent of control (vehicle; mean±SD).

EPO: purified, recombinant human EPO (rhEPO), formulated and distributed under the trademarks EPREX, ERYPO or PROCRIT
infarct volume / protection against ischemic injury ([1]; Study I: 132 or 1321 U/day continuous iv infusion via osmotic mini-pump, started before ischemia): significantly reduced infarct volume; also recorded: protects against ischemic injury
protection against ischemic damage ([1]; Study II: single iv bolus 15 min post-occlusion, 1000, 2500 or 5000 U/kg): did not protect against ischemic damage; also recorded: does not protect against ischemic injury
infarct volume / protection against ischemic injury ([1]; Study III: repeat iv bolus 2500 U/kg at 15 min, 2 h, 4 h and 6 h post-occlusion): significant decrease in infarct volume; also recorded: protects against ischemic injury
concentration of greatest neuroprotective effect ([2]; cell survival greater than or equal to vehicle (no glutamate) treated cultures): greatest effects observed at pM concentrations
neuronal survival / protection against glutamate toxicity (in words) ([2]; pretreatment 24 h prior to 100 μM glutamate): significant increase in neuronal survival; also recorded: protects rat cerebral cortical neurons against glutamate toxicity
cell survival, maximal increase over parallel cultures treated with glutamate alone ([2]; pretreatment 24 h prior to 100 μM glutamate, counted 24 h post-glutamate): approximately 200%
